These results are taken from patent publication US9303012B2, “Pyridine-2-amides useful as CB2 agonists” (Hoffmann-La Roche Inc., priority 2012, dated 2016).

The target of experiment [1] is human CB2 receptors (Homo sapiens (Human), UniProt P34972). Briefly: functional cAMP assay, CHO cells expressing human CB2 receptors. The format is cell-based. The gist of the method: (§1)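 CHO cells expressing human CB1 or CB2 were preincubated 30 min at 30 °C in Krebs Ringer bicarbonate with 1 mM IBMX, then exposed to compound 30 min at 30 °C. cAMP quantified by TR-FRET competition (Alexa700 antibody/ruthenium-cAMP) against a 10 μM–0.13 nM standard curve; EC50 derived.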
(Cyclic AMP is a second messenger, typically raised through Gs and lowered through Gi signalling.)

For experiment [2], the target named is human CB1 receptors (Homo sapiens (Human), UniProt P21554). Briefly: functional cAMP assay, CHO cells expressing human CB1 receptors. The format is cell-based. The gist of the method: as §1
Chain of human CB1 receptors (P21554 whole entry): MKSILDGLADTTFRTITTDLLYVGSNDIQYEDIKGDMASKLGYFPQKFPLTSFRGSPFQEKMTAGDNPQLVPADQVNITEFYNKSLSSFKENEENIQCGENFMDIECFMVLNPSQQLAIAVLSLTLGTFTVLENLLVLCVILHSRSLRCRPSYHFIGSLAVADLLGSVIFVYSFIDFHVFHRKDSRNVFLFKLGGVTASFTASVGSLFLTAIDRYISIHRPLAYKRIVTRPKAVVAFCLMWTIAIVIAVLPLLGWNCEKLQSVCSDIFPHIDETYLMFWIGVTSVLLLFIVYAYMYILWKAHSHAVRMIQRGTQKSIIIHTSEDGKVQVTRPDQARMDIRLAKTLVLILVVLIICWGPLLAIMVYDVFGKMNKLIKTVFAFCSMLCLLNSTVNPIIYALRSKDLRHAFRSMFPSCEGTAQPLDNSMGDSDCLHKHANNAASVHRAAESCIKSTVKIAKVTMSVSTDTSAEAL

Chain of human CB2 receptors (P34972 whole entry): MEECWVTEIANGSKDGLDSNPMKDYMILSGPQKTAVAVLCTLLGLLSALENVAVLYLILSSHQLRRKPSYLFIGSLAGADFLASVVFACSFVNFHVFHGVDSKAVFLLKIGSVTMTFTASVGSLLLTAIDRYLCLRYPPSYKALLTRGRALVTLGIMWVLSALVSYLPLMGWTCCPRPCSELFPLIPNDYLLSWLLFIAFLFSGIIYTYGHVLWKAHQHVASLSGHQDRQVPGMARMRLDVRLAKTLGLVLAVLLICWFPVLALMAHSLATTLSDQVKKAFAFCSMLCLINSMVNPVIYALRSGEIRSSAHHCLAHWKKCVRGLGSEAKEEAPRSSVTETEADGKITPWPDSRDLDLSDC

In general, EC50 refers to the concentration at which the effect is half-maximal. A low value points to a more potent agent. On to `CC1(O)C[C@@H](C(N)=O)N(C(=O)c2ccc(N3CC(F)(F)C3)c(OCC3CC3)n2)C1` (stereo partly drawn) [Example 132, (2S)-1-[6-(Cyclopropylmethoxy)-5-(3,3-difluoroazetidin-1-yl)pyridine-2-carbonyl]-4-hydroxy-4-methylpyrrolidine-2-carboxamide], for which the results for the EC50 in experiment [1] and in experiment [2] were 30.1 nM and > 10000 nM, respectively.

Turning to `NC(=O)C1CS(=O)(=O)CN1C(=O)c1ccc(C2(F)CCC2)c(OCC2CC2)n1` (stereo not drawn) [Example 133, 3-[6-(Cyclopropylmethoxy)-5-(1-fluorocyclobutyl)pyridine-2-carbonyl]-1,1-dioxo-1,3-thiazolidine-4-carboxamide], the results for the EC50 in experiment [1] and in experiment [2] were 10.2 nM and > 10000 nM, respectively.

Consider `NC(=O)[C@@H]1CC(F)(F)CN1C(=O)c1ccc(C2(F)COC2)c(OCC2CC2)n1` [Example 134, (2S)-1-[6-(Cyclopropylmethoxy)-5-(3-fluorooxetan-3-yl)pyridine-2-carbonyl]-4,4-difluoropyrrolidine-2-carboxamide], for which the EC50 in experiment [1] is 52.2 nM; in experiment [2], > 10000 nM.

In the case of `NC(=O)C1CC2(CC2)CN1C(=O)c1ccc(N2CC(F)(F)C2)c(OCC2CC2)n1` (stereo not drawn) [Example 135, 5-[6-(Cyclopropylmethoxy)-5-(3,3-difluoroazetidin-1-yl)pyridine-2-carbonyl]-5-azaspiro[2.4]heptane-6-carboxamide], the values for the EC50 in experiment [1] and in experiment [2] were 15.6 nM and > 10000 nM, respectively.

As to `O=C(c1ccc(N2CC(F)(F)C2)c(OCC2CC2)n1)N1CCC(C(O)C(F)(F)F)C1` (stereo not drawn) [Example 136, [6-(Cyclopropylmethoxy)-5-(3,3-difluoroazetidin-1-yl)pyridin-2-yl]-[3-(2,2,2-trifluoro-1-hydroxyethyl)pyrrolidin-1-yl]methanone], the EC50 in experiment [1] was 32.9 nM; in experiment [2], > 10000 nM.

In the case of `O=C(c1ccc(N2CC(F)(F)C2)c(OCC2CC2)n1)N1CCC(CO)(C(F)(F)F)C1` (stereo not drawn) [Example 137, [6-(Cyclopropylmethoxy)-5-(3,3-difluoroazetidin-1-yl)pyridin-2-yl]-[3-(hydroxymethyl)-3-(trifluoromethyl)pyrrolidin-1-yl]methanone], the EC50 in experiment [1] was 53.8 nM; in experiment [2], > 10000 nM.

Turning to `O=C(c1ccc(N2CC(F)(F)C2)c(OCC2CC2)n1)N1CCC(O)(C(F)(F)F)C1` (stereo not drawn) [Example 138, [6-(Cyclopropylmethoxy)-5-(3,3-difluoroazetidin-1-yl)pyridin-2-yl]-[3-hydroxy-3-(trifluoromethyl)pyrrolidin-1-yl]methanone], the half-maximal effective concentration (EC50) in experiment [1] was 83.5 nM; in experiment [2] it was > 10000 nM.

As for `O=C(c1ccc(N2CC(F)(F)C2)c(OCC2CC2)n1)N1CC(O)(C(F)(F)F)C1` [Example 139, [6-(Cyclopropylmethoxy)-5-(3,3-difluoroazetidin-1-yl)pyridin-2-yl]-[3-hydroxy-3-(trifluoromethyl)azetidin-1-yl]methanone], the EC50 in experiment [1] was 42 nM; in experiment [2] it was > 10000 nM.

`C[C@]1(O)C[C@@H](C(N)=O)N(C(=O)c2ccc(N3CC(F)(F)C3)c(OCC3CC3)n2)C1` [Example 140, (+)-(2S)-1-[6-(Cyclopropylmethoxy)-5-(3,3-difluoroazetidin-1-yl)pyridine-2-carbonyl]-4-hydroxy-4-methylpyrrolidine-2-carboxamide]: the EC50 in experiment [1] is 40.6 nM; in experiment [2], > 10000 nM.

In the case of `O=C(c1ccc(C2CC2)c(OCC2CC2)n1)N1CCC(C(O)C(F)(F)F)C1` (stereo not drawn) [Example 141, [5-Cyclopropyl-6-(cyclopropylmethoxy)pyridin-2-yl]-[3-(2,2,2-trifluoro-1-hydroxyethyl)pyrrolidin-1-yl]methanone], the EC50 in experiment [1] was 262 nM; in experiment [2], > 10000 nM.

In the case of `O=C(c1ccc(C2CC2)c(OCC2CC2)n1)N1CCC(CO)(C(F)(F)F)C1` (stereo not drawn) [Example 142, [5-Cyclopropyl-6-(cyclopropylmethoxy)pyridin-2-yl]-[3-(hydroxymethyl)-3-(trifluoromethyl)pyrrolidin-1-yl]methanone], the figures for the EC50 in experiment [1] and in experiment [2] were 26.3 nM and > 10000 nM, respectively.

For `O=C(c1ccc(C2CC2)c(OCC2CC2)n1)N1CCC(O)(C(F)(F)F)C1` (stereo not drawn) [Example 143, [5-Cyclopropyl-6-(cyclopropylmethoxy)pyridin-2-yl]-[3-hydroxy-3-(trifluoromethyl)pyrrolidin-1-yl]methanone], the EC50 in experiment [1] is 87.8 nM; in experiment [2], > 10000 nM.

For `O=C(c1ccc(C2CC2)c(OCC2CC2)n1)N1CC(O)(C(F)(F)F)C1` [Example 144, [5-Cyclopropyl-6-(cyclopropylmethoxy)pyridin-2-yl]-[3-hydroxy-3-(trifluoromethyl)azetidin-1-yl]methanone], the EC50 in experiment [1] was 73 nM; in experiment [2], > 10000 nM.

For `NC(=O)[C@@H]1CC2(CC2)CN1C(=O)c1ccc(N2CC(F)(F)C2)c(OCC2CC2)n1` [Example 145, (6S)-5-[6-(Cyclopropylmethoxy)-5-(3,3-difluoroazetidin-1-yl)pyridine-2-carbonyl]-5-azaspiro[2.4]heptane-6-carboxamide], the EC50 is 356 nM in experiment [1] and > 10000 nM in experiment [2].

`O=C(c1ccc(N2CC(F)(F)C2)c(OCC2CC2)n1)N1C[C@H]2COC[C@H]2C1` [Example 146, [(3aR,6aS)-1,3,3a,4,6,6a-Hexahydrofuro[3,4-c]pyrrol-5-yl]-[6-(cyclopropylmethoxy)-5-(3,3-difluoroazetidin-1-yl)pyridin-2-yl]methanone]: the values for the EC50 in experiment [1] and in experiment [2] were 167 nM and > 10000 nM, respectively.

For the compound `NC(=O)[C@@H]1CC(F)(F)CN1C(=O)c1ccc(N2CC(F)(F)C2)c(OCCF)n1` [Example 147, (2S)-1-[5-(3,3-Difluoroazetidin-1-yl)-6-(2-fluoroethoxyl)pyridine-2-carbonyl]-4,4-difluoro-pyrrolidine-2-carboxamide], the EC50 was 1170 nM in experiment [1] and > 10000 nM in experiment [2].

On to `O=C(c1ccc(N2CC(F)(F)C2)c(OCC2CC2)n1)N1CC(F)(CO)C1` [Example 148, [6-(Cyclopropylmethoxy)-5-(3,3-difluoroazetidin-1-yl)-2-pyridyl]-[3-fluoro-3-(hydroxymethyl)azetidin-1-yl]methanone], for which the results for the EC50 in experiment [1] and in experiment [2] were 451 nM and > 10000 nM, respectively.

Turning to `CC1(F)CN(C(=O)c2ccc(N3CC(F)(F)C3)c(OCC3CC3)n2)C1` [Example 149, [6-(Cyclopropylmethoxy)-5-(3,3-difluoroazetidin-1-yl)-2-pyridyl]-(3-fluoro-3-methyl-azetidin-1-yl)methanone], the EC50 is 79 nM in experiment [1] and > 10000 nM in experiment [2].

Turning to `O=C(c1ccc(N2CC(F)(F)C2)c(OCC2CC2)n1)N1CC(F)(C2CC2)C1` [Example 150, (3-Cyclopropyl-3-fluoroazetidin-1-yl)-[6-(cyclopropylmethoxy)-5-(3,3-difluoroazetidin-1-yl)pyridin-2-yl]methanone], the EC50 in experiment [1] is 8 nM; in experiment [2], > 10000 nM.

`NC(=O)[C@@H]1N(C(=O)c2ccc(N3CC(F)(F)C3)c(OCC3CC3)n2)CCC12CC2` [Example 151, (−)-5-[6-(Cyclopropylmethoxy)-5-(3,3-difluoroazetidin-1-yl)pyridine-2-carbonyl]-5-azaspiro[2.4]heptane-4-carboxamide]: the EC50 in experiment [1] is 818 nM; in experiment [2], > 10000 nM.

As to `NC(=O)[C@H]1N(C(=O)c2ccc(N3CC(F)(F)C3)c(OCC3CC3)n2)CCC12CC2` [Example 152, (+)-5-[6-(Cyclopropylmethoxy)-5-(3,3-difluoroazetidin-1-yl)pyridine-2-carbonyl]-5-azaspiro[2.4]heptane-4-carboxamide], the EC50 in experiment [1] is 338 nM; in experiment [2] it was > 10000 nM.
